Like-named read-outs stand apart in the source and are kept apart here.
How the values were obtained:
Assay type in all cases: in vivo
Kochia (Kochia scoparia) [1] = assay: Test A preemergence; details: Bassia scoparia, pre-emergence, 240 h; for pest or weed control at 125 g/ha: 125 g ai/ha, preemergence, visual rating after approx. 10 d, 0 to 100 scale where 0 is no effect and 100 is complete control
Procedure, shortened: (§1)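 Visual injury, scored on a 0–100 scale relative to untreated controls, was recorded about 10 d after application. Treatments were a preemergence soil spray over planted seeds or a postemergence spray on plants at the one- to two-leaf stage, 2 to 10 cm tall, all in loam soil–sand blend in the greenhouse.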

[2] = system: barnyardgrass (Echinochloa crus-galli); assay: Test A preemergence; details: Echinochloa crus-galli, pre-emergence, 240 h; for pest or weed control at 125 g/ha: 125 g ai/ha, preemergence, visual rating after approx. 10 d, 0 to 100 scale where 0 is no effect and 100 is complete control
Procedure, shortened: as §1

[3] = system: giant foxtail (Setaria faberii); assay: Test A preemergence; details: Setaria faberi, pre-emergence, 240 h; for pest or weed control at 125 g/ha: 125 g ai/ha, preemergence, visual rating after approx. 10 d, 0 to 100 scale where 0 is no effect and 100 is complete control
Procedure, shortened: as §1

[4] = system: pigweed (Amaranthus retroflexus); assay: Test A preemergence; details: Amaranthus retroflexus, pre-emergence, 240 h; for pest or weed control at 125 g/ha: 125 g ai/ha, preemergence, visual rating after approx. 10 d, 0 to 100 scale where 0 is no effect and 100 is complete control
[5] = system: ragweed (common ragweed, Ambrosia elatior); assay: Test A preemergence; details: Ambrosia artemisiifolia, pre-emergence, 240 h; for pest or weed control at 125 g/ha: 125 g ai/ha, preemergence, visual rating after approx. 10 d, 0 to 100 scale where 0 is no effect and 100 is complete control
Procedure, shortened: as §1

[6] = system: ryegrass, Italian (Italian ryegrass, Lolium multiflorum); assay: Test A preemergence; details: Lolium multiflorum, pre-emergence, 240 h; for pest or weed control at 125 g/ha: 125 g ai/ha, preemergence, visual rating after approx. 10 d, 0 to 100 scale where 0 is no effect and 100 is complete control
Procedure, shortened: as §1

[7] = system: Galium (catchweed bedstraw, Galium aparine); assay: Test A postemergence; details: Galium, post-emergence, 240 h; for pest or weed control at 125 g/ha: 125 g ai/ha, postemergence
Procedure, shortened: as §1

Kochia (Kochia scoparia) [8] = assay: Test A postemergence; details: Bassia scoparia, post-emergence, 240 h; for pest or weed control at 125 g/ha: 125 g ai/ha, postemergence
Procedure, shortened: as §1

[9] = system: barnyardgrass (Echinochloa crus-galli); assay: Test A postemergence; details: Echinochloa crus-galli, post-emergence, 240 h; for pest or weed control at 125 g/ha: 125 g ai/ha, postemergence
Procedure, shortened: as §1

[10] = system: blackgrass (Alopecurus myosuroides); assay: Test A postemergence; details: Alopecurus myosuroides, post-emergence, 240 h; for pest or weed control at 125 g/ha: 125 g ai/ha, postemergence
Procedure, shortened: as §1

corn (Zea mays) = assay: Test A postemergence; details: Zea mays, post-emergence, 240 h
Procedure, shortened: as §1

[11] = system: giant foxtail (Setaria faberii); assay: Test A postemergence; details: Setaria faberi, post-emergence, 240 h; for pest or weed control at 125 g/ha: 125 g ai/ha, postemergence
Procedure, shortened: as §1

[12] = system: pigweed (Amaranthus retroflexus); assay: Test A postemergence; details: Amaranthus retroflexus, post-emergence, 240 h; for pest or weed control at 125 g/ha: 125 g ai/ha, postemergence
Procedure, shortened: as §1

[13] = system: ragweed (common ragweed, Ambrosia elatior); assay: Test A postemergence; details: Ambrosia artemisiifolia, post-emergence, 240 h; for pest or weed control at 125 g/ha: 125 g ai/ha, postemergence
Procedure, shortened: as §1

[14] = system: wheat (Triticum aestivum); assay: Test A postemergence; details: Triticum aestivum, post-emergence, 240 h; for plant injury at 125 g/ha: 125 g ai/ha, postemergence
Procedure, shortened: as §1

[15] = read-out: Plant response rating, Kochia
[16] = read-out: Plant response rating, Barnyardgrass
[17] = read-out: Plant response rating, Foxtail, Giant
[18] = read-out: Plant response rating, Pigweed
[19] = read-out: Plant response rating, Ragweed
[20] = read-out: Plant response rating, Ryegrass, Italian

In the case of `CN1C[C@H](c2nccs2)[C@@H](C(=O)Nc2cccc(F)c2F)C1=O` [Compound 774], the pest or weed control at 125 g/ha (Kochia (Kochia scoparia) [1]; [15]) is reported as 0%, the pest or weed control at 500 g/ha (Kochia (Kochia scoparia) [1]; 500 g ai/ha, Preemergence, visual injury vs untreated controls after approximately 10 d, read-out: Kochia plant response rating (0 to 100 scale where 0 is no effect and 100 is complete control)) is reported as 0% and the pest or weed control at 125 g/ha [2, 16] is reported as 0%. For the same compound, the pest or weed control at 500 g/ha ([2]; 500 g ai/ha, Preemergence, visual injury vs untreated controls after approximately 10 d, read-out: Barnyardgrass plant response rating (0 to 100 scale where 0 is no effect and 100 is complete control)) was 0%, the pest or weed control at 125 g/ha [3, 17] was 0% and the pest or weed control at 500 g/ha ([3]; 500 g ai/ha, Preemergence, visual injury vs untreated controls after approximately 10 d, read-out: Foxtail, Giant plant response rating (0 to 100 scale where 0 is no effect and 100 is complete control)) was 0%. For the same compound, the pest or weed control at 125 g/ha [4, 18] was 0%, the pest or weed control at 500 g/ha ([4]; 500 g ai/ha, Preemergence, visual injury vs untreated controls after approximately 10 d, read-out: Pigweed plant response rating (0 to 100 scale where 0 is no effect and 100 is complete control)) was 0% and the pest or weed control at 125 g/ha [5, 19] was 0%. For the same compound, the pest or weed control at 500 g/ha ([5]; 500 g ai/ha, Preemergence, visual injury vs untreated controls after approximately 10 d, read-out: Ragweed plant response rating (0 to 100 scale where 0 is no effect and 100 is complete control)) was 0%, the pest or weed control at 125 g/ha [6, 20] was 0% and the pest or weed control at 500 g/ha ([6]; 500 g ai/ha, Preemergence, visual injury vs untreated controls after approximately 10 d, read-out: Ryegrass, Italian plant response rating (0 to 100 scale where 0 is no effect and 100 is complete control)) was 0%. The pest or weed control at 125 g/ha ([7]; visual injury after approximately 10 d, 0 to 100 scale (0 no effect, 100 complete control), read-out: Plant response rating, Galium) was 0%, the pest or weed control at 125 g/ha (Kochia (Kochia scoparia) [8]; visual injury after approximately 10 d, 0 to 100 scale (0 no effect, 100 complete control), read-out: Plant response rating, Kochia) was 0% and the pest or weed control at 125 g/ha ([9]; visual injury after approximately 10 d, 0 to 100 scale (0 no effect, 100 complete control), read-out: Plant response rating, Barnyardgrass) was 0%. For the same compound, the pest or weed control at 125 g/ha ([10]; visual injury after approximately 10 d, 0 to 100 scale (0 no effect, 100 complete control), read-out: Plant response rating, Blackgrass) was 0%, the Corn plant response rating (crop injury, 0 = no effect, 100 = complete kill) at 125 g/ha (corn (Zea mays); 125 g ai/ha, postemergence, visual injury after approximately 10 d, 0 to 100 scale (0 no effect, 100 complete control)) was 0% and the pest or weed control at 125 g/ha ([11]; visual injury after approximately 10 d, 0 to 100 scale (0 no effect, 100 complete control), read-out: Plant response rating, Foxtail, Giant) was 0%. The pest or weed control at 125 g/ha ([12]; visual injury after approximately 10 d, 0 to 100 scale (0 no effect, 100 complete control), read-out: Plant response rating, Pigweed) was 0%, the pest or weed control at 125 g/ha ([13]; visual injury after approximately 10 d, 0 to 100 scale (0 no effect, 100 complete control), read-out: Plant response rating, Ragweed) was 0% and the plant injury at 125 g/ha ([14]; visual injury after approximately 10 d, 0 to 100 scale (0 no effect, 100 complete control), read-out: Plant response rating, Wheat) was 0%.
`CN1CC[C@H](c2ccc3c(c2)OC(F)(F)O3)[C@@H](C(=O)Nc2ccccc2C(F)(F)F)C1=O` [Compound 811] showed a pest or weed control at 125 g/ha (Kochia (Kochia scoparia) [1]; [15]) of 0%, a pest or weed control at 31 g/ha (Kochia (Kochia scoparia) [1]; Preemergence, 31 g ai/ha, 0 to 100 scale (0 no effect, 100 complete control), read-out: Plant response rating, Kochia) of 0% and a pest or weed control at 125 g/ha [2, 16] of 40%. It also gave a pest or weed control at 31 g/ha ([2]; Preemergence, 31 g ai/ha, 0 to 100 scale (0 no effect, 100 complete control), read-out: Plant response rating, Barnyardgrass) of 0%, a pest or weed control at 125 g/ha [3, 17] of 40% and a pest or weed control at 31 g/ha ([3]; Preemergence, 31 g ai/ha, 0 to 100 scale (0 no effect, 100 complete control), read-out: Plant response rating, Foxtail, Giant) of 0%. For the same compound, the pest or weed control at 125 g/ha [4, 18] was 0%, the pest or weed control at 31 g/ha ([4]; Preemergence, 31 g ai/ha, 0 to 100 scale (0 no effect, 100 complete control), read-out: Plant response rating, Pigweed) was 0% and the pest or weed control at 125 g/ha [5, 19] was 0%. It also gave a pest or weed control at 31 g/ha ([5]; Preemergence, 31 g ai/ha, 0 to 100 scale (0 no effect, 100 complete control), read-out: Plant response rating, Ragweed) of 0%, a pest or weed control at 125 g/ha [6, 20] of 0% and a pest or weed control at 31 g/ha ([6]; Preemergence, 31 g ai/ha, 0 to 100 scale (0 no effect, 100 complete control), read-out: Plant response rating, Ryegrass, Italian) of 0%. The pest or weed control at 125 g/ha ([7]; visual injury rating after approximately 10 d, read-out: Galium plant response rating (0 to 100 scale, 0 no effect, 100 complete control)) was 0%, the pest or weed control at 31 g/ha ([7]; Postemergence, 31 g ai/ha, visual injury after approx. 10 d, 0 to 100 scale, 0 no effect, 100 complete control, read-out: Plant response rating, Galium) was 0% and the pest or weed control at 125 g/ha (Kochia (Kochia scoparia) [8]; visual injury rating after approximately 10 d, read-out: Kochia plant response rating (0 to 100 scale, 0 no effect, 100 complete control)) was 0%. For the same compound, the pest or weed control at 31 g/ha (Kochia (Kochia scoparia) [8]; Postemergence, 31 g ai/ha, visual injury after approx. 10 d, 0 to 100 scale, 0 no effect, 100 complete control, read-out: Plant response rating, Kochia) was 0%, the pest or weed control at 125 g/ha ([9]; visual injury rating after approximately 10 d, read-out: Barnyardgrass plant response rating (0 to 100 scale, 0 no effect, 100 complete control)) was 40% and the pest or weed control at 31 g/ha ([9]; Postemergence, 31 g ai/ha, visual injury after approx. 10 d, 0 to 100 scale, 0 no effect, 100 complete control, read-out: Plant response rating, Barnyardgrass) was 0%. It also gave a pest or weed control at 125 g/ha ([10]; visual injury rating after approximately 10 d, read-out: Blackgrass plant response rating (0 to 100 scale, 0 no effect, 100 complete control)) of 0%, a pest or weed control at 31 g/ha ([10]; Postemergence, 31 g ai/ha, visual injury after approx. 10 d, 0 to 100 scale, 0 no effect, 100 complete control, read-out: Plant response rating, Blackgrass) of 0% and a plant injury at 125 g/ha (corn (Zea mays); 125 g ai/ha, postemergence, visual injury rating after approximately 10 d, read-out: Corn plant response rating (0 to 100 scale, 0 no effect, 100 complete control)) of 0%. It also gave a Corn plant response rating (crop injury, 0 = no effect, 100 = complete kill) at 31 g/ha (corn (Zea mays); Postemergence, 31 g ai/ha, visual injury after approx. 10 d, 0 to 100 scale, 0 no effect, 100 complete control) of 0%, a pest or weed control at 125 g/ha ([11]; visual injury rating after approximately 10 d, read-out: Foxtail, Giant plant response rating (0 to 100 scale, 0 no effect, 100 complete control)) of 60% and a pest or weed control at 31 g/ha ([11]; Postemergence, 31 g ai/ha, visual injury after approx. 10 d, 0 to 100 scale, 0 no effect, 100 complete control, read-out: Plant response rating, Foxtail, Giant) of 0%. It also gave a pest or weed control at 125 g/ha ([12]; visual injury rating after approximately 10 d, read-out: Pigweed plant response rating (0 to 100 scale, 0 no effect, 100 complete control)) of 0%, a pest or weed control at 31 g/ha ([12]; Postemergence, 31 g ai/ha, visual injury after approx. 10 d, 0 to 100 scale, 0 no effect, 100 complete control, read-out: Plant response rating, Pigweed) of 0% and a pest or weed control at 125 g/ha ([13]; visual injury rating after approximately 10 d, read-out: Ragweed plant response rating (0 to 100 scale, 0 no effect, 100 complete control)) of 0%. For the same compound, the pest or weed control at 31 g/ha ([13]; Postemergence, 31 g ai/ha, visual injury after approx. 10 d, 0 to 100 scale, 0 no effect, 100 complete control, read-out: Plant response rating, Ragweed) was 0%, the plant injury at 125 g/ha ([14]; visual injury rating after approximately 10 d, read-out: Wheat plant response rating (0 to 100 scale, 0 no effect, 100 complete control)) was 0% and the plant injury at 31 g/ha ([14]; Postemergence, 31 g ai/ha, visual injury after approx. 10 d, 0 to 100 scale, 0 no effect, 100 complete control, read-out: Plant response rating, Wheat) was 0%.

Reference: patent US12077503B2, “Substituted cyclic amides and their use as herbicides” (FMC CORPORATION, priority 2015, dated 2024)
